Broadly, the MIC is the lowest concentration that inhibits growth of the organism. A word on the IC50: it is the concentration at which inhibition is half-maximal. The Ki is the dissociation constant of the complex between target and ligand, obtained from inhibition or displacement. A low value points to tighter binding.

Experimental findings from ChEMBL document CHEMBL4392848, “Proline-based hydroxamates targeting the zinc-dependent deacetylase LpxC: Synthesis, antibacterial properties, and docking studies” (Bioorg Med Chem, 2019) are described below.

Data set [1] concerns Escherichia coli. Put plainly: Antibacterial activity against Escherichia coli D22 measured after 20 hrs by microdilution method. The class given is functional. Particulars: D22, 20 h. Background: In broth dilution the organism is exposed to a series of concentrations in liquid medium.
Data set [2] has as its system Escherichia coli. Put plainly: Antibacterial activity against Escherichia coli BL21(DE3) measured after 20 hrs by microdilution method. The class given is functional.
For another data set, the system named is Citrobacter freundii. Put plainly: Antibacterial activity against Citrobacter freundii assessed as diameter of inhibition zone measured after 24 hrs by agar disc diffusion method. Format: functional.
The subject of another data set is Klebsiella oxytoca. Put plainly: Antibacterial activity against Klebsiella oxytoca assessed as diameter of inhibition zone measured after 24 hrs by agar disc diffusion method. The class given is functional.
Data set [3] has as its target Matrix metalloproteinase-9 (Homo sapiens, UniProt P14780). Briefly: Inhibition of human MMP9 using (7-methoxycoumarin-4-yl)acetyl-Pro-Leu-Gly-Leu-(3-(2,4-dinitrophenyl)-L-2,3-diamino-propionyl)Ala-Arg-NH2 as substrate preincubated for 30 mins followed by substrate addition and measured by fluorescence assay.
Data set [4] relates to Escherichia coli. Briefly: Antibacterial activity against Escherichia coli D22 assessed as diameter of inhibition zone measured after overnight incubation by agar disc diffusion method. Format: functional.
The subject of the next data set is Proteus mirabilis. Put plainly: Antibacterial activity against Proteus mirabilis assessed as diameter of inhibition zone measured after 24 hrs by agar disc diffusion method. The class given is functional.
A further data set has as its system Proteus vulgaris. Put plainly: Antibacterial activity against Proteus vulgaris assessed as diameter of inhibition zone measured after 24 hrs by agar disc diffusion method. Format: functional. In general terms: In agar diffusion tests the substance spreads into inoculated agar from a disc or well.
In another data set the target is Collagenase 3 (Homo sapiens, UniProt P45452). Put plainly: Inhibition of human MMP13 using (7-methoxycoumarin-4-yl)acetyl-Pro-Leu-Gly-Leu-(3-(2,4-dinitrophenyl)-L-2,3-diamino-propionyl)Ala-Arg-NH2 as substrate preincubated for 30 mins followed by substrate addition and measured by fluorescence assay.
Data set [5] concerns the target 72 kDa type IV collagenase (Homo sapiens, UniProt P08253). Briefly: Inhibition of human MMP2 using (7-methoxycoumarin-4-yl)acetyl-Pro-Leu-Gly-Leu-(3-(2,4-dinitrophenyl)-L-2,3-diamino-propionyl)Ala-Arg-NH2 as substrate preincubated for 30 mins followed by substrate addition and measured by fluorescence assay.
A further data set concerns Klebsiella aerogenes. Briefly: Antibacterial activity against Enterobacter aerogenes assessed as diameter of inhibition zone measured after 24 hrs by agar disc diffusion method. Format: functional.
Another data set relates to Enterobacter cloacae. Put plainly: Antibacterial activity against Enterobacter cloacae assessed as diameter of inhibition zone measured after 24 hrs by agar disc diffusion method. The class given is functional.
Data set [6] in a line: Inhibition of Escherichia coli LpxC C63A mutant using UDP-3-O-[(R)-3-hydroxymyristoyl]-N-acetylglucosamine as substrate measured after 30 mins by fluorescence based microplate assay.
The test system of data set [7] is Escherichia coli. Briefly: Antibacterial activity against Escherichia coli BL21(DE3) assessed as diameter of inhibition zone measured after overnight incubation by agar disc diffusion method. The class given is functional.
A further data set has as its system Klebsiella pneumoniae. Put plainly: Antibacterial activity against Klebsiella pneumoniae assessed as diameter of inhibition zone measured after 24 hrs by agar disc diffusion method. The class given is functional.
Another data set has as its system Pseudomonas aeruginosa. Briefly: Antibacterial activity against Pseudomonas aeruginosa assessed as diameter of inhibition zone measured after 24 hrs by agar disc diffusion method. The class given is functional.
In data set [8] the test system is Escherichia coli. Put plainly: Inhibition of Escherichia coli LpxC C63A mutant at 200 uM using UDP-3-O-[(R)-3-hydroxymyristoyl]-N-acetylglucosamine as substrate measured after 30 mins by fluorescence based microplate assay.
For a further data set, the target named is Neutrophil collagenase (Homo sapiens, UniProt P22894). Briefly: Inhibition of human MMP8 using (7-methoxycoumarin-4-yl)acetyl-Pro-Leu-Gly-Leu-(3-(2,4-dinitrophenyl)-L-2,3-diamino-propionyl)Ala-Arg-NH2 as substrate preincubated for 30 mins followed by substrate addition and measured by fluorescence assay.
Data set [9] is described as follows: Selectivity ratio of IC50 for human MMP9 to IC50 for human MMP13. The class given is ADME.
For another data set, the target named is MMP-2/MMP-9 (Homo sapiens, UniProt P08253+P14780). Put plainly: Selectivity ratio of IC50 for human MMP9 to IC50 for human MMP2. The class given is ADME.
The nature of data set [10]: Selectivity ratio of IC50 for human MMP8 to IC50 for human MMP13. Format: ADME.
The nature of data set [11]: Selectivity ratio of IC50 for human MMP8 to IC50 for human MMP2. The class given is ADME.

Molecules are shown by their SMILES. In brackets after ≈: the same amount, converted by molar mass. Activity calls are given as the source filed them. The rule behind the calls is not given here.

Neutrophil collagenase, sequence (P22894 whole entry): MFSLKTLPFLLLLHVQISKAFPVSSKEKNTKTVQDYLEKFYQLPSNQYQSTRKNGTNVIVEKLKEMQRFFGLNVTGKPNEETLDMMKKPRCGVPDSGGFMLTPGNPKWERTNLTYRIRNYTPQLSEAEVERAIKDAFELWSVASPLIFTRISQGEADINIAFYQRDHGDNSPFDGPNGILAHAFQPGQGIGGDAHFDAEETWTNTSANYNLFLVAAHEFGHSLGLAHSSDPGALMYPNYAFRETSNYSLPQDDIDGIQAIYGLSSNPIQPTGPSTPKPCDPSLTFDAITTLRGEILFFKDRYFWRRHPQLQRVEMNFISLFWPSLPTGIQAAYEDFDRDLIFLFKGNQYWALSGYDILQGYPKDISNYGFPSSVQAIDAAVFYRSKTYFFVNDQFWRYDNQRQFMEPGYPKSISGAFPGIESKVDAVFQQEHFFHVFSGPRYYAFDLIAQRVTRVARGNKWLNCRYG
Matrix metalloproteinase-9, sequence (P14780 whole entry, the tested form may be a part): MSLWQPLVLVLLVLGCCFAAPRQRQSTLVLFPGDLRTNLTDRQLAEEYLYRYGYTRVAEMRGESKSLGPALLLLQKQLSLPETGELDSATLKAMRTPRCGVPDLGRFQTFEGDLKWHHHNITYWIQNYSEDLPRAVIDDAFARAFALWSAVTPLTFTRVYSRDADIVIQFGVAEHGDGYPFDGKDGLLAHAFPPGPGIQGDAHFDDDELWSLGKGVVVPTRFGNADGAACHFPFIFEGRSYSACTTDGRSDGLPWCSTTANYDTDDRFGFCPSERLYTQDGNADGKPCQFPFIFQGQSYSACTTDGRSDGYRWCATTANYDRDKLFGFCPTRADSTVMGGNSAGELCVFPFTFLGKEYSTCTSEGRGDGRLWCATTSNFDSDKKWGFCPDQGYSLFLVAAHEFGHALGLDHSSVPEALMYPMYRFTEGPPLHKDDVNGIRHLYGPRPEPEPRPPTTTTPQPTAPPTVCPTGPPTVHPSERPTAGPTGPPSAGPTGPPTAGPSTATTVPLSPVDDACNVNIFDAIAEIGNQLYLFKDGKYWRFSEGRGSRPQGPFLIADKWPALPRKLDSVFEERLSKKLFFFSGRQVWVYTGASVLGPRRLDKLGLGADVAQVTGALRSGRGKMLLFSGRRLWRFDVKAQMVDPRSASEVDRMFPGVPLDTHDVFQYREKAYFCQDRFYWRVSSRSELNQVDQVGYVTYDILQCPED
72 kDa type IV collagenase, sequence (P08253 whole entry, the tested form may be a part): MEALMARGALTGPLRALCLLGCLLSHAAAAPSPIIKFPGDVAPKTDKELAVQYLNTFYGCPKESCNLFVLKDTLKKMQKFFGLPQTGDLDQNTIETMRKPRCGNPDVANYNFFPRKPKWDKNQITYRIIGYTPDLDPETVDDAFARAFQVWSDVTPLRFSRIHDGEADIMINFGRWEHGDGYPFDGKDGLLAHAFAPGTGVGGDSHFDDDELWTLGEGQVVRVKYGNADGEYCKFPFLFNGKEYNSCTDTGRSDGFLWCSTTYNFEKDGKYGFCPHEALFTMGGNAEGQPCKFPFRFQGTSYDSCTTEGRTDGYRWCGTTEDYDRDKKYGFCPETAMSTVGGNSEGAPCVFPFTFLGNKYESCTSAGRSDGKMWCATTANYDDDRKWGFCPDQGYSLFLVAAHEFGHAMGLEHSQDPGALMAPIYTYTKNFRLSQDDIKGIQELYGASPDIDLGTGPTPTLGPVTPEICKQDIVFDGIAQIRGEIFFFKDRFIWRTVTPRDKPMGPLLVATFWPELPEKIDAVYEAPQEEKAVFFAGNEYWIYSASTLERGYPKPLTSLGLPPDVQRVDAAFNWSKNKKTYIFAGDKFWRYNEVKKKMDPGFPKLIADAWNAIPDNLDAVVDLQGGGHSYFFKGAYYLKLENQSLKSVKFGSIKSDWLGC

With `O=C(NO)[C@H]1[C@H](O)[C@H](O)CN1C(=O)c1ccc(C#Cc2ccc(CN3CCSCC3)cc2)cc1`, the MIC against Escherichia coli [1] was 128 µM (≈ 61.6 µg/mL); against Escherichia coli [2] it was greater than 256 µM. Further, the “diameter of the inhibition zone (DIZ)” value in the data set on Citrobacter freundii is less than 6 mm; in the data set with Klebsiella oxytoca, 7 mm; in the data set with Escherichia coli [4] it was 8.3 mm; with Proteus mirabilis it was less than 6 mm; in the data set with Proteus vulgaris, less than 6 mm; with Klebsiella aerogenes, less than 6 mm. The “diameter of the inhibition zone (DIZ)” value with Enterobacter cloacae, in the data set with Escherichia coli [7], in the data set on Klebsiella pneumoniae and with Pseudomonas aeruginosa was less than 6 mm each time. For the same molecule, the half-maximal inhibitory concentration (IC50) was greater than 10 µM in data set [3], 5 µM against Collagenase 3, greater than 10 µM in data set [5] and greater than 200 µM in data set [6]. This molecule also came in with a Ki in data set [6] greater than 27.6 µM. Moreover, the inhibition entry in the data set with Escherichia coli [8] was “inactive”.
`O=C(NO)[C@H]1[C@H](O)[C@H](O)CN1C(=O)c1ccc(C#Cc2ccc(CN3CCOCC3)cc2)cc1`: the minimal inhibitory concentration (MIC) in the data set with Escherichia coli [1] and against Escherichia coli [2] was greater than 256 µM in each case. The “diameter of the inhibition zone (DIZ)” value is recorded as less than 6 mm in the data set on Citrobacter freundii; 8 mm with Klebsiella oxytoca; less than 6 mm in the data set with Escherichia coli [4]; less than 6 mm in the data set on Proteus mirabilis; less than 6 mm in the data set with Proteus vulgaris; less than 6 mm in the data set on Klebsiella aerogenes. Moreover, the “diameter of the inhibition zone (DIZ)” value in the data set with Enterobacter cloacae, in the data set on Escherichia coli [7], in the data set on Klebsiella pneumoniae and with Pseudomonas aeruginosa was less than 6 mm throughout. In addition, the IC50 is greater than 10 µM in data set [3]; 4.32 µM against Collagenase 3; greater than 10 µM against Neutrophil collagenase; greater than 10 µM in data set [5]; greater than 200 µM in [6]. In data set [6], this molecule registered a Ki greater than 27.6 µM. Moreover, the inhibition result with Escherichia coli [8] is “inactive”.
`O=C(NO)[C@@H]1[C@H](O)[C@H](O)CN1C(=O)c1ccc(C#Cc2ccc(CN3CCOCC3)cc2)cc1`: the MIC in the data set with Escherichia coli [1] is 16 µM (≈ 7.45 µg/mL); with Escherichia coli [2], 128 µM (≈ 59.6 µg/mL). Further, the half-maximal inhibitory concentration (IC50) in data set [3] stood at 1.8 µM; on Collagenase 3, 0.039 µM; against Neutrophil collagenase it was 0.172 µM; in data set [5] it was 0.032 µM; in data set [6] it was 2.5 µM. Moreover, the “diameter of the inhibition zone (DIZ)” value with Escherichia coli [4] is given as 18 mm; in the data set on Escherichia coli [7], less than 6 mm. The “Ratio IC50” value was 51 in [9], 51 on MMP-2/MMP-9, 4 to 5 in data set [10] and 4 to 5 in [11]. Further, in [6], the Ki amounted to 0.34 µM.
`O=C(NO)[C@@H]1C[C@@H](O)CN1Cc1ccc(C#Cc2ccc(CN3CCOCC3)cc2)cc1`: the MIC is 8 µM (≈ 3.48 µg/mL) against Escherichia coli [1] and greater than 256 µM in the data set with Escherichia coli [2]. Further, the “diameter of the inhibition zone (DIZ)” value with Citrobacter freundii is less than 6 mm; in the data set on Klebsiella oxytoca it was less than 6 mm; with Escherichia coli [4] it was 21 mm; in the data set with Proteus mirabilis, less than 6 mm; with Proteus vulgaris, less than 6 mm; in the data set with Klebsiella aerogenes, less than 6 mm. Besides, the “diameter of the inhibition zone (DIZ)” value in the data set with Enterobacter cloacae is given as less than 6 mm; in the data set on Escherichia coli [7], 12.3 mm; with Klebsiella pneumoniae it was 7 mm; with Pseudomonas aeruginosa, less than 6 mm. In addition, the IC50 in data set [3] was greater than 10 µM; on Collagenase 3, greater than 10 µM; at Neutrophil collagenase, greater than 10 µM; in [5], greater than 10 µM; in data set [6] it was 62.1 µM. The molecule further returned a Ki in data set [6] of 8.6 µM.
